Experimental findings from patent US7799809B2, “Carboxamide compounds and their use as calpain inhibitors” (Abbott GmbH & Co. KG, priority 2006, dated 2010) are described below.

For the first experiment, the target named is T1, cathepsin L (Homo sapiens, UniProt P07711).
T1 construct: cathepsin L—isolated from human liver (Calbiochem #219402); purchased Calbiochem 219402; host or cells: human liver (tissue-derived)
T1 sequence (P07711 114-333): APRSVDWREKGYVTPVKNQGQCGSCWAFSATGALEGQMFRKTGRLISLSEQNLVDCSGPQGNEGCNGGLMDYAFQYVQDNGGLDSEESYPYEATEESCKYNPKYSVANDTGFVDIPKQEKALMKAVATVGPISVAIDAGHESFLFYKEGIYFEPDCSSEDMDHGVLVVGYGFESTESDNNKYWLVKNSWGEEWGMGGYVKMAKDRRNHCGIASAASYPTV
The experiment can be described thus: Cathepsin L enzyme inhibition in vitro (kinetic fluorescence assay). The experiment is classed as biochemical. To be noted: cathepsin L isolated from human liver vs calpain I. The method, then: (§1) The following solutions and buffers were employed: • HBS (for 40 ml): 800 μl M HEPES; 2.16 ml 100 mM KCl; 4.8 ml 1M NaCl; 3.59 ml 5% glucose; 60 μl μM MgSO4; 400 μl 100 mM Na pyruvate, 28.19 ml water; pH 7.2-7.5. • lysis buffer (for 20 ml): 400 μl M Tris pH 8.2; 2.74 ml 1M NaCl; 520 μl 0.5M EDTA; 2 ml 10% triton X-100; 0.8 ml (=1:25) CompletePlus (1 tablet/2 ml H2O); 200 μl 100 mM Pefabloc; 13.34 ml water, pH 8.2. • TBST (10×) (for 1 l): 100 mM Tris (12.1 g); 1.5M NaCl (87 g); 1% Tween 20 (10 g), adjusted to pH 8. I Enzyme Inhibition In Vitro: • Testing for blockade of the corresponding enzymic activities was carried out by means of kinetic fluorescence assays (excitation 390 nm, emission 460 nm). • Apparent Ki values were calculated from the experimentally determined IC50 values by the Cheng-Prussoff relation assuming a reversible competitive enzyme inhibition. The Km values of the substrates used under the assay conditions indicated above were: 90 μM (Z-Phe-Arg-AMC, cathepsin B), 10 μM (Z-Gly-Pro-Arg-AMC, cathepsin K), 2 μM (Z-Phe-Arg-AMC, cathepsin L), and 30 μM (Z-Val-Val-Arg-AMC, cathepsin S). • The indicated Ki values are averages of the inhibition constants calculated on the basis of 2 to 4 independent dose-effect plots.
(§2) The following assays were used: • 1. Calpain I: • 20 nM calpain-I—isolated from human erythrocytes (Calbiochem #208713), 100 μM Suc-Leu-Tyr-AMC (Bachem #1-1355) as substrate in buffer with 62 mM imidazole, 0.3 mM CaCl2, 0.10% CHAPS, 0.05% BSA, 1 mM DTT at pH 7.3 and room temperature. • 2. Cathepsin B: • 0.25 nM cathepsin B—isolated from human liver (Calbiochem #219362), 100 μM Z-Phe-Arg-AMC (Bachem #I-1160) as substrate 50 mM MES, 2 mM EDTA, 0.05% Brij 35, 2.5 mM L-cysteine, pH 6.0, room temperature. • 3. Cathepsin K: • 3 nM cathepsin K—activated from recombinant human procathepsin K from E. coli (Calbiochem #342001), 10 μM Z-Gly-Pro-Arg-AMC (Biomol #P-142) as substrate in 50 mM MES, 2 mM EDTA, 0.05% Brij 35, 2.5 mM L-cysteine, pH 6.0, room temperature. • 4. Cathepsin L: • 1 nM cathepsin L—isolated from human liver (Calbiochem #219402), 2 μM Z-Phe-Arg-AMC (Bachem #1-1160) as substrate in 50 mM MES, 2 mM EDTA, 0.05% Brij 35, 2.5 mM L-cysteine, pH 6.0, room temperature. • 5. Cathepsin S: • 0.5 nM recombinant human cathepsin S from E. coli (Calbiochem #219343), 20 μM Z-Val-Val-Arg-AMC (Bachem #1-1540) as substrate in 50 mM MES, 2 mM EDTA, 0.05% Brij 35, 2.5 mM L-cysteine, pH 6.0, room temperature. • The results of the in vitro determination are indicated in Table 1. The following abbreviations are used in Table 1: • The “Calpain activity” column, ++ stands for a calpain Ki (Ki(calpain)) of ≦40 nM and + means: 40 nM<Ki(Calpain)≦100 nM. • The “Sel. cat. B” column indicates the Ki(cathepsin B)/Ki(calpain) ratio. In this connection, ++ means a Ki(cathepsin B)/Ki(calpain) ratio of ≧30 and + means 10≦Ki(cathepsin B)/Ki(calpain)<30. • The “Sel. cat. K” column indicates the Ki(cathepsin K)/Ki(calpain) ratio. In this connection, ++ means a Ki(cathepsin K)/Ki(calpain) ratio of ≧30 and + means 10≦Ki(cathepsin K)/Ki(calpain)<30. • The “Sel. cat. L” column indicates the Ki(cathepsin L)/Ki(calpain) ratio. In this connection, ++ means a Ki(cathepsin L)/Ki(calpain) ratio of ≧50 and + means 30≦Ki(cathepsin L)/Ki(calpain)<50. • The “Sel. cat. S” column indicates the Ki(cathepsin S)/Ki(calpain) ratio. In this connection, ++ means a Ki(cathepsin S)/Ki(calpain) ratio of ≧100 and + means 50≦Ki(cathepsin S)/Ki(calpain)<100.
As to `COCc1cn(-c2ncccc2C(=O)NC(Cc2ccccc2)C(=O)C(N)=O)nc1-c1ccc(F)cc1` (stereo not drawn) [Example 170, N-[3-Amino-2,3-dioxo-1-(phenylmethyl)propyl]-2-{3-(4-fluorophenyl)-4-[(methyloxy)methyl]-1H-pyrazol-1-yl}pyridine-3-carboxamide], the “Sel cat. L: Ki(cathepsin L)/Ki(calpain) ratio” value is recorded as “+ (+ means 30≦Ki(cathepsin L)/Ki(calpain)<50)”. Take `CCCCC(NC(=O)c1cc(Cl)cnc1-n1cnc(-c2ccccc2)c1)C(=O)C(N)=O.Cl` (stereo not drawn) [Example 24, N-{1-[Amino(oxo)acetyl]pentyl}-5-chloro-2-(4-phenyl-1H-imidazol-1-yl)nicotinamide hydrochloride]: the “Sel cat. L: Ki(cathepsin L)/Ki(calpain) ratio” value is on record as “+ (+ means 30≦Ki(cathepsin L)/Ki(calpain)<50)”.

In the next experiment the target is T2, cathepsin S (Homo sapiens, UniProt P25774).
T2 construct: purchased Calbiochem 219343; host or cells: E. coli
T2 sequence (P25774 115-331): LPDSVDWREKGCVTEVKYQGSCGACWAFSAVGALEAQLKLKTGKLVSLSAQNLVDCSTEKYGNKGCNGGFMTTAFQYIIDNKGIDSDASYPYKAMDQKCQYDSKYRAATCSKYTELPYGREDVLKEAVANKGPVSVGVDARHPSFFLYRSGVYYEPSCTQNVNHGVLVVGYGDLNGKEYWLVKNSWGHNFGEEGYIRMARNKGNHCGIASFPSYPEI
The experiment can be described thus: Cathepsin S enzyme inhibition in vitro (kinetic fluorescence assay). The experiment is classed as biochemical. The conditions noted are these: recombinant human cathepsin S vs calpain I. How it is done: as §1, §2
For `Cl.NC(=O)C(=O)C(Cc1ccccc1)NC(=O)c1cccnc1-n1ccc(-c2cccc(CN3CCOCC3)c2)n1` (stereo not drawn) [Example 52, N-(3-Amino-1-benzyl-2,3-dioxopropyl)-2-{3-[3-(morpholin-4-ylmethyl)phenyl]-1H-pyrazol-1-yl}nicotinamide hydrochloride], the “Sel cat. S: Ki(cathepsin S)/Ki(calpain) ratio” value is “++ (++ means a Ki(cathepsin S)/Ki(calpain) ratio of ≧100)”. For `CCCCC(NC(=O)c1cccnc1-n1ccc(-c2ccc(CN(CC)CC)cc2)n1)C(=O)C(N)=O` (stereo not drawn) [Example 44, N-{1-[Amino(oxo)acetyl]pentyl}-2-(3-{4-[(diethylamino)methyl]phenyl}-1H-pyrazol-1-yl)nicotinamide], the “Sel cat. S: Ki(cathepsin S)/Ki(calpain) ratio” value is “+ (+ means 50≦Ki(cathepsin S)/Ki(calpain)<100)”.

For the molecule `CN(C)Cc1cn(-c2ncccc2C(=O)NC(Cc2ccccc2)C(=O)C(N)=O)nc1-c1cccc(C(F)(F)F)c1` (stereo not drawn) [Example 176, N-[3-Amino-2,3-dioxo-1-(phenylmethyl)propyl]-2-{4-[(dimethylamino)methyl]-3-[3-(trifluoromethyl)phenyl]-1H-pyrazol-1-yl}pyridine-3-carboxamide], the “Sel cat. S: Ki(cathepsin S)/Ki(calpain) ratio” value is “++ (++ means a Ki(cathepsin S)/Ki(calpain) ratio of ≧100)”. The same measure, in the same setting: the result for `NC(=O)C(=O)C(Cc1ccccc1)NC(=O)c1cccnc1-n1cc(CCN2CCOCC2)c(-c2ccc(F)cc2)n1` (stereo not drawn) [Example 165, N-[3-Amino-2,3-dioxo-1-(phenylmethyl)propyl]-2-[3-(4-fluorophenyl)-4-(2-morpholin-4-ylethyl)-1H-pyrazol-1-yl]pyridine-3-carboxamide] reads “++ (++ means a Ki(cathepsin S)/Ki(calpain) ratio of ≧100)”; that for `NC(=O)C(=O)C(Cc1ccccc1)NC(=O)c1cccnc1-n1ccc(-c2ccc(CN3CCOCC3)cc2)n1` (stereo not drawn) [Example 46, N-(3-Amino-1-benzyl-2,3-dioxopropyl)-2-{3-[4-(morpholin-4-ylmethyl)phenyl]-1H-pyrazol-1-yl}nicotinamide], “++ (++ means a Ki(cathepsin S)/Ki(calpain) ratio of ≧100)”; that for `NC(=O)C(=O)C(Cc1ccccc1)NC(=O)c1cccnc1-n1cc(-c2ccccc2F)cn1` (stereo not drawn) [Example 104, N-[3-Amino-2,3-dioxo-1-(phenylmethyl)propyl]-2-[4-(2-fluorophenyl)-1H-pyrazol-1-yl]pyridine-3-carboxamide], “+ (+ means 50≦Ki(cathepsin S)/Ki(calpain)<100)”. Same read-out and setting: to `NC(=O)C(=O)C(Cc1ccccc1)NC(=O)c1cccnc1-n1ccc(-c2ccc(-n3ccnc3)cc2)n1` (stereo not drawn) [Example 101, N-[3-Amino-2,3-dioxo-1-(phenylmethyl)propyl]-2-{3-[4-(1H-imidazol-1-yl)phenyl]-1H-pyrazol-1-yl}pyridine-3-carboxamide] belongs “++ (++ means a Ki(cathepsin S)/Ki(calpain) ratio of ≧100)”. For the molecule `CCCCC(NC(=O)c1cccnc1-n1ccc(-c2ccccc2)n1)C(=O)C(N)=O` (stereo not drawn) [Example 6, N-{1-[Amino(oxo)acetyl]pentyl}-2-(3-phenyl-1H-pyrazol-1-yl)nicotinamide], the “Sel cat. S: Ki(cathepsin S)/Ki(calpain) ratio” value is reported as “+ (+ means 50≦Ki(cathepsin S)/Ki(calpain)<100)”. Same read-out and setting: to `NC(=O)C(=O)C(Cc1ccccc1)NC(=O)c1cccnc1-n1cc(CN2CCCC2)c(-c2cccc(C(F)(F)F)c2)n1` (stereo not drawn) [Example 178, N-[3-Amino-2,3-dioxo-1-(phenylmethyl)propyl]-2-{4-(pyrrolidin-1-ylmethyl)-3-[3-(trifluoromethyl)phenyl]-1H-pyrazol-1-yl}pyridine-3-carboxamide] belongs “++ (++ means a Ki(cathepsin S)/Ki(calpain) ratio of ≧100)”. On the same count and under the same terms, to `CCN(CC)Cc1ccc(-c2ccn(-c3ncccc3C(=O)NC(Cc3ccccc3)C(=O)C(N)=O)n2)cc1.Cl` (stereo not drawn) [Example 43, N-(3-Amino-1-benzyl-2,3-dioxopropyl)-2-(3-{4-[(diethylamino)methyl]phenyl}-1H-pyrazol-1-yl)nicotinamide hydrochloride] belongs “++ (++ means a Ki(cathepsin S)/Ki(calpain) ratio of ≧100)”; to `NC(=O)C(=O)C(Cc1ccccc1)NC(=O)c1cccnc1-n1ccc(-c2ccncc2)n1` (stereo not drawn) [Example 65, N-(3-Amino-1-benzyl-2,3-dioxopropyl)-2-(3-pyridin-4-yl-1H-pyrazol-1-yl)nicotinamide], “++ (++ means a Ki(cathepsin S)/Ki(calpain) ratio of ≧100)”; to `CCCCC(NC(=O)c1cccnc1-n1ccc(-c2ccc(CN3CCOCC3)cc2)n1)C(=O)C(N)=O` (stereo not drawn) [Example 45, N-{1-[Amino(oxo)acetyl]pentyl}-2-{3-[4-(morpholin-4-ylmethyl)phenyl]-1H-pyrazol-1-yl}nicotinamide], “+ (+ means 50≦Ki(cathepsin S)/Ki(calpain)<100)”. Take `NC(=O)C(=O)C(Cc1ccccc1)NC(=O)c1cccnc1-n1cc(CN2CCOCC2)c(-c2cccc(C(F)(F)F)c2)n1` (stereo not drawn) [Example 177, N-[3-Amino-2,3-dioxo-1-(phenylmethyl)propyl]-2-{4-(morpholin-4-ylmethyl)-3-[3-(trifluoromethyl)phenyl]-1H-pyrazol-1-yl}pyridine-3-carboxamide]: the “Sel cat. S: Ki(cathepsin S)/Ki(calpain) ratio” value is on record as “++ (++ means a Ki(cathepsin S)/Ki(calpain) ratio of ≧100)”.

`NC(=O)C(=O)C(Cc1ccccc1)NC(=O)c1cccnc1-n1cnc(-c2ccc(N3CCOCC3)cc2)c1` (stereo not drawn) [Example 14, N-(3-Amino-1-benzyl-2,3-dioxopropyl)-2-[4-(4-morpholin-4-ylphenyl)-1H-imidazol-1-yl]nicotinamide]: the “Sel cat. S: Ki(cathepsin S)/Ki(calpain) ratio” value is “++ (++ means a Ki(cathepsin S)/Ki(calpain) ratio of ≧100)”. With `CCN(CC)c1ccc(-c2ccn(-c3ncccc3C(=O)NC(Cc3ccccc3)C(=O)C(N)=O)n2)cc1` (stereo not drawn) [Example 42, N-(3-Amino-1-benzyl-2,3-dioxopropyl)-2-{3-[4-(diethylamino)phenyl]-1H-pyrazol-1-yl}nicotinamide], the “Sel cat. S: Ki(cathepsin S)/Ki(calpain) ratio” value is on record as “++ (++ means a Ki(cathepsin S)/Ki(calpain) ratio of ≧100)”.

As for `CCCCC(NC(=O)c1cccnc1-n1ccc(-c2ccc(N(CC)CC)cc2)n1)C(=O)C(N)=O` (stereo not drawn) [Example 47, N-{1-[Amino(oxo)acetyl]pentyl}-2-{3-[4-(diethylamino)phenyl]-1H-pyrazol-1-yl}nicotinamide], the “Sel cat. S: Ki(cathepsin S)/Ki(calpain) ratio” value is listed as “++ (++ means a Ki(cathepsin S)/Ki(calpain) ratio of ≧100)”.
